Data taken from ChEMBL document CHEMBL4145544, “Discovery and optimization of 1-(1H-indol-1-yl)ethanone derivatives as CBP/EP300 bromodomain inhibitors for the treatment of castration-resistant prostate cancer” (Eur J Med Chem, 2018).
Calls of active or inactive are those of the source. No cut-off for these calls is given here.

Assays:
[1] = tested on: HFL1; assay: Antiproliferative activity against HFL1 cells after 72 hrs by Cell-Titer Glo assay; assay type: cell-based; settings: Homo sapiens, HFL1, 72 h
[2] = molecular target: T1, CREB-binding protein/Histone acetyltransferase p300 (Homo sapiens) (UniProt Q09472+Q92793); assay: Inhibition of EP300/CBP in human LNCAP cells assessed as downregulation of Myc mRNA expression at 1 to 5 uM after 48 hrs by qRT-PCR method; assay type: cell-based
T1 sequence (Q09472 whole entry, looked up): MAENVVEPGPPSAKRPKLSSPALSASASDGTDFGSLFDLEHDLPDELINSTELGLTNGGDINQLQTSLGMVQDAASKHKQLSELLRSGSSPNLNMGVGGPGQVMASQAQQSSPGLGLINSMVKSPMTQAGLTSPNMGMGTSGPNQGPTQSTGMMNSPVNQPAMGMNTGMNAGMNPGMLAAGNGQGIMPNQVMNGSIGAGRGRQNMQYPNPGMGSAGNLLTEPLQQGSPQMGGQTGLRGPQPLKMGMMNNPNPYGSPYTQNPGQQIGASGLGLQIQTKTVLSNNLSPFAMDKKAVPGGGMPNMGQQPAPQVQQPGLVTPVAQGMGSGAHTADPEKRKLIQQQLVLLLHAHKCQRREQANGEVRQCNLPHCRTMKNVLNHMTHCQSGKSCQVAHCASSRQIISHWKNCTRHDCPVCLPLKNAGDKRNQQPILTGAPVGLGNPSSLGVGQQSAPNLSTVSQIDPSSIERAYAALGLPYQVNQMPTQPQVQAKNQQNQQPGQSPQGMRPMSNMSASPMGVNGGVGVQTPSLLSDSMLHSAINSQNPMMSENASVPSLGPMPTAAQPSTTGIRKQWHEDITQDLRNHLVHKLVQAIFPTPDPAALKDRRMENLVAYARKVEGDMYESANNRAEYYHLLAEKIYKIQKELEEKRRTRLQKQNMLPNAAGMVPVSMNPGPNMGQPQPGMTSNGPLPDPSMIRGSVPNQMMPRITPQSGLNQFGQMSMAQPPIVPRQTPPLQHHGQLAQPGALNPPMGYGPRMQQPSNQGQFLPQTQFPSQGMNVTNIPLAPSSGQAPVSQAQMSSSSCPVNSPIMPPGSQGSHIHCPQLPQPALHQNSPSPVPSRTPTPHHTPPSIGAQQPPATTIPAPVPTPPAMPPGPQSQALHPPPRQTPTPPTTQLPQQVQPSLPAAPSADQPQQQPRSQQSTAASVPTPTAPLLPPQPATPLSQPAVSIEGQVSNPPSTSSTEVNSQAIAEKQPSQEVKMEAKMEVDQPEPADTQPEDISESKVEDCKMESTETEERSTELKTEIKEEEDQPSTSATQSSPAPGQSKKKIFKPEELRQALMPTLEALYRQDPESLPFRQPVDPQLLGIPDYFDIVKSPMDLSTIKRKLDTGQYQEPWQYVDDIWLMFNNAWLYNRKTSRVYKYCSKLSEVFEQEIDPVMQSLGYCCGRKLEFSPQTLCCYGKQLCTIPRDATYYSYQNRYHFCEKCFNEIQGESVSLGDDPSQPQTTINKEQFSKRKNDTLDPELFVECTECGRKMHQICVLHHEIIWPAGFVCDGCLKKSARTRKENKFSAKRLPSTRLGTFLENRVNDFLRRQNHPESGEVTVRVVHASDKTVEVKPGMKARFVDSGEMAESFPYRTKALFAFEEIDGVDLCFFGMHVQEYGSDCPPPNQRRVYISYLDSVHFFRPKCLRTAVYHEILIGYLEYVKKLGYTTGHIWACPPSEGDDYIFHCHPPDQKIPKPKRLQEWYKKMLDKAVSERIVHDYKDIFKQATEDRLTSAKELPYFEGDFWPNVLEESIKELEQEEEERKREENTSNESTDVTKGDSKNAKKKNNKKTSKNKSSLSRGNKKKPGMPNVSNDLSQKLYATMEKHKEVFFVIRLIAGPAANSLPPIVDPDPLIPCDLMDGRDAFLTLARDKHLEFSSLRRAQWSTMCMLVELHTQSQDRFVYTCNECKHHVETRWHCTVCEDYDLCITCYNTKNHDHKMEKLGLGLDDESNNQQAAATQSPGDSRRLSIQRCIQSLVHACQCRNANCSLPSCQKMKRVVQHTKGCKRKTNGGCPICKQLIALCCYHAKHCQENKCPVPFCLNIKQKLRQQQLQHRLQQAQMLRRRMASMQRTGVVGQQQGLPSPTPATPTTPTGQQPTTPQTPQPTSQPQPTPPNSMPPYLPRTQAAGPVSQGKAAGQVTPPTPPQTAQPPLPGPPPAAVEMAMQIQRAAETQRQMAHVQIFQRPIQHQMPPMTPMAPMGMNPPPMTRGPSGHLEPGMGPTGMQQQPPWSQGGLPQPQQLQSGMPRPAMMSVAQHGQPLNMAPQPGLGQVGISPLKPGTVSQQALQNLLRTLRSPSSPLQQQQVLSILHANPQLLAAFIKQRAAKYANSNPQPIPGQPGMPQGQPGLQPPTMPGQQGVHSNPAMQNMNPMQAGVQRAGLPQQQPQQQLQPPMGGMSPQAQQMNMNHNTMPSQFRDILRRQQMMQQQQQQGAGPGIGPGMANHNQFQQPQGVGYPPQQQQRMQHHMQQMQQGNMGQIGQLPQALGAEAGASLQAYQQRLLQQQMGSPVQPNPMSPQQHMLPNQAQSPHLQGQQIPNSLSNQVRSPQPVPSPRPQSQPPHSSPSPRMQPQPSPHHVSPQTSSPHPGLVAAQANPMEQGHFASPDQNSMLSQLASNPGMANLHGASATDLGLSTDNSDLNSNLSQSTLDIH
T1 sequence (Q92793 whole entry, looked up): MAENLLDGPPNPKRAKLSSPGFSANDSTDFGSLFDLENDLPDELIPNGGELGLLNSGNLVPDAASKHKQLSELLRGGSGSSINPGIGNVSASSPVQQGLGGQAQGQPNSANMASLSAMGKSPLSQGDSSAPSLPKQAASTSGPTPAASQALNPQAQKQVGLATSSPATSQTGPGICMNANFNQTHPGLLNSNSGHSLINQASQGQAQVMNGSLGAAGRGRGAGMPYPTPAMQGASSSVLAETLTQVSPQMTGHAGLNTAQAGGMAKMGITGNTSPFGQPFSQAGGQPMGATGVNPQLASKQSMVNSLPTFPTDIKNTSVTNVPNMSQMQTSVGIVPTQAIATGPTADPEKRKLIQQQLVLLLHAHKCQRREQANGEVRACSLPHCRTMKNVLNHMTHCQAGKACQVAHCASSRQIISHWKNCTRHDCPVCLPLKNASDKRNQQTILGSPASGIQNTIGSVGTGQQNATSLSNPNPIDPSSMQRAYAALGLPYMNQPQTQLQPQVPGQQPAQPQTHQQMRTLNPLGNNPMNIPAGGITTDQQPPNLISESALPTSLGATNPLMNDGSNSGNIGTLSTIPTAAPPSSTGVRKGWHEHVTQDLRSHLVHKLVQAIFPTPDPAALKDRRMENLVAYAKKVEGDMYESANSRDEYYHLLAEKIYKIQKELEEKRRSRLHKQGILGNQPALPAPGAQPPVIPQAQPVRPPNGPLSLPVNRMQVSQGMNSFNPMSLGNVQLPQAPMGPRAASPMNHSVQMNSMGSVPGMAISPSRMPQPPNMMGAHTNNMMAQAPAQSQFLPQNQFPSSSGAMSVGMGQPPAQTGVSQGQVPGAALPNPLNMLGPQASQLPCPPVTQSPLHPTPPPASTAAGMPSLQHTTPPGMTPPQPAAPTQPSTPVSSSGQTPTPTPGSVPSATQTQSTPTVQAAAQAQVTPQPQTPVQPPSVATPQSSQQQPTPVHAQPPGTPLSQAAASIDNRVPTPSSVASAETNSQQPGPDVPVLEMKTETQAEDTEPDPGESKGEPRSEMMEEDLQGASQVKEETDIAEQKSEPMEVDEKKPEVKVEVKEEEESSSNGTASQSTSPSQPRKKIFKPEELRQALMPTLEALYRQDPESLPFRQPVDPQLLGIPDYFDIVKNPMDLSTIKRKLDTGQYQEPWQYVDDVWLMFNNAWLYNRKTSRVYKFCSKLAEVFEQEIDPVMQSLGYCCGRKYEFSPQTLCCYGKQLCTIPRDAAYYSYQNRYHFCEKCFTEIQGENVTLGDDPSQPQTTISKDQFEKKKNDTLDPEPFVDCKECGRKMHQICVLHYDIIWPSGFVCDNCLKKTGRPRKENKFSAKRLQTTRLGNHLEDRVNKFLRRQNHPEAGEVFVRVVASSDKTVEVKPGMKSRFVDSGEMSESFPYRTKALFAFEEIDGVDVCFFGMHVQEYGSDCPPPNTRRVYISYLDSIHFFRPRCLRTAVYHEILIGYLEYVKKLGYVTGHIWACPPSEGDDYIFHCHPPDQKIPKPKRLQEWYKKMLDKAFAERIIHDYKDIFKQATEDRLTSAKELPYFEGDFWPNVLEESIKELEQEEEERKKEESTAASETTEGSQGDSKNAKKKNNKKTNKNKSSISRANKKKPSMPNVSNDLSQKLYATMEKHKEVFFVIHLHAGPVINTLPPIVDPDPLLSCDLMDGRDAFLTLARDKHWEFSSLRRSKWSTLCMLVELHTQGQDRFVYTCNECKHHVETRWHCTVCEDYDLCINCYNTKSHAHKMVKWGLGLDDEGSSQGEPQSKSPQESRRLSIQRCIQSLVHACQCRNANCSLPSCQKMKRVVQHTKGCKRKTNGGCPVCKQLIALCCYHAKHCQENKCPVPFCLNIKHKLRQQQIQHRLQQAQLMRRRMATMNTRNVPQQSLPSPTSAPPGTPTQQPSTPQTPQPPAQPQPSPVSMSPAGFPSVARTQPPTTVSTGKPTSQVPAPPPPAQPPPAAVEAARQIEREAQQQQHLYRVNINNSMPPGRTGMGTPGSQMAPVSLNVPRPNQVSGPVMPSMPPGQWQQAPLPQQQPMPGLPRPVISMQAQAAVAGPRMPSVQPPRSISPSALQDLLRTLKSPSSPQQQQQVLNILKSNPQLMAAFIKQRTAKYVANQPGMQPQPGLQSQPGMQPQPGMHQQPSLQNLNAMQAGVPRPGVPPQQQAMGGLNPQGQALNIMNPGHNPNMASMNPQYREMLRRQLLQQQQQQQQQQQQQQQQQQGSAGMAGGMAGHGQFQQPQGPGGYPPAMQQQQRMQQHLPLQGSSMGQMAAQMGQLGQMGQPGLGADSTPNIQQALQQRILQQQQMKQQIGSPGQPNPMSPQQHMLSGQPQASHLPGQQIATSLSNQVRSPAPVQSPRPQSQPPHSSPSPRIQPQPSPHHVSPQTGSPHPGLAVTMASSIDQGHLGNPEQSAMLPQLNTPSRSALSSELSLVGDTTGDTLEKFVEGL

[3] = tested on: L02; assay: Antiproliferative activity against human HL7702 cells after 96 hrs by Cell-Titer Glo assay; assay type: cell-based; settings: L02, 96 h
[4] = tested on: PC-3; assay: Antiproliferative activity against human PC3 cells after 96 hrs by Cell-Titer Glo assay; assay type: functional, cell-based; settings: PC-3, 96 h
[5] = molecular target: T1, CREB-binding protein/Histone acetyltransferase p300 (Homo sapiens); assay: Inhibition of EP300/CBP in human LNCAP cells assessed as downregulation of AR-regulated TMPRSS2 mRNA expression at 1 to 5 uM after 48 hrs by qRT-PCR method; assay type: cell-based
[6] = molecular target: T1, CREB-binding protein/Histone acetyltransferase p300 (Homo sapiens); assay: Inhibition of EP300/CBP in human LNCAP cells transfected with PSA-Luc reporter plasmid after 24 hrs by luciferase reporter gene assay; assay type: cell-based
[7] = tested on: LNCaP C4-2B; assay: Anticlonogenic activity against human C4-2B cells after 14 days by crystal violet staining based assay; assay type: functional, cell-based
[8] = molecular target: T1, CREB-binding protein/Histone acetyltransferase p300 (Homo sapiens); assay: Inhibition of EP300/CBP in human LNCAP cells assessed as downregulation of AR-regulated KLK2 mRNA expression at 1 to 5 uM after 48 hrs by qRT-PCR method; assay type: cell-based
[9] = tested on: Hs-578T; assay: Antiproliferative activity against human Hs 578T cells after 72 hrs by Cell-Titer Glo assay; assay type: functional, cell-based
[10] = tested on: CWR22R; assay: Anticlonogenic activity against human 22Rv1 cells after 14 days by crystal violet staining based assay; assay type: functional, cell-based
[11] = tested on: CWR22R; assay: Potency index, ratio of enzalutamide IC50 to compound IC50 for antiproliferative activity against human 22Rv1 cells; assay type: functional
[12] = tested on: CWR22R; assay: Anticlonogenic activity against human 22Rv1 cells at 4 uM after 14 days by crystal violet staining based assay relative to control; assay type: functional
[13] = molecular target: T1, CREB-binding protein/Histone acetyltransferase p300 (Homo sapiens); assay: Inhibition of EP300/CBP in human LNCAP cells assessed as downregulation of AR-regulated PSA mRNA expression at 1 to 5 uM after 48 hrs by qRT-PCR method; assay type: cell-based
[14] = tested on: LNCaP; assay: Antiproliferative activity against human LNCAP cells after 72 hrs by Cell-Titer Glo assay; assay type: functional, cell-based; settings: Homo sapiens, LNCaP, 72 h; read-out: IC50
[15] = tested on: LNCaP; assay: Potency index, ratio of enzalutamide IC50 to compound IC50 for antiproliferative activity against human LNCAP cells; assay type: functional
[16] = molecular target: T1, CREB-binding protein/Histone acetyltransferase p300 (Homo sapiens); assay: Inhibition of EP300/CBP in human LNCAP cells assessed as downregulation of full length AR mRNA expression at 1 to 5 uM after 48 hrs by qRT-PCR method; assay type: cell-based
[17] = tested on: MCF7; assay: Antiproliferative activity against human MCF7 cells after 96 hrs by Cell-Titer Glo assay; assay type: functional, cell-based; settings: MCF7, 96 h
[18] = tested on: MDA-MB-231; assay: Antiproliferative activity against human MDA-MB-231 cells after 96 hrs by Cell-Titer Glo assay; assay type: functional, cell-based; settings: MDA-MB-231, 96 h
[19] = tested on: LNCaP C4-2B; assay: Anticlonogenic activity against human C4-2B cells at 4 uM after 14 days by crystal violet staining based assay relative to control; assay type: functional
[20] = tested on: CWR22R; assay: cells; settings: Homo sapiens, 22Rv1, 72 h
Description: Antiproliferative activity against human 22Rv1 cells after 72 hrs by Cell-Titer Glo assay

inhibition [2]: Active
IC50 [4]: 25.8 µM
inhibition [5]: Active
inhibition [6]: Dose-dependent effect
inhibition [8]: Active
inhibition [13]: Active
IC50 [14]: 2010 nM
inhibition [16]: Active
IC50 [17]: 7.46 µM
IC50 [18]: 36 µM
IC50 [20]: 2130 nM
Structure (SMILES): COc1ccc2c(c1)c(C(=O)Nc1cc(C(=O)OC(C)(C)C)cc(-c3cnn(C)c3)c1F)cn2C(C)=O
IC50 [1]: > 100 µM
IC50 [3]: 40 µM
Activity [7]: Dose-dependent effect
IC50 [9]: 15.1 µM
Activity [10]: Dose-dependent effect
Ratio IC50 [11]: 17
Activity [12]: <10%
Ratio IC50 [15]: 17
Activity [19]: <10%
